# According to US20210261621A1, “Preparation of Dilipid Polymixins and Use Thereof as Antimicrobial Adjuvants” (priority 2018, published 2021):
# Like-named read-outs stand apart in the source and are kept apart here. Positions of bridges follow the written chain, without caps; N, C: chain ends. Non-standard residues stand in square brackets, D forms with d. Residues, ends and D or L forms follow the SMILES beside them. *: point of attachment. Lauroyl = CCCCCCCCCCCC(=O)*; Octanoyl = CCCCCCCC(=O)*; Dab = NCC[C@H](N)C(=O)O; Butyryl = CCCC(=O)*
# Assays:
# [1] = system: E. faecalis ATCC 29212; type: cell-based
# From the text: (§1) Bacterial strains were either obtained from the American Type Culture Collection (ATCC), Canadian National Intensive Care Unit (CAN-ICU) surveillance study or the Canadian Ward Surveillance (CANWARD) study. Strains from both CAN-ICU and CANWARD are isolates recovered from patients diagnosed with a presumed infectious disease that were admitted in a participating medical center across Canada. Efflux-deficient strain PAO200 (lacking MexAB-OprM efflux system) and PA0750 (lacking MexAB-OprM, MexCD-OprJ, MexEF-OprN, MexJK and MexXY efflux systems, and the outer membrane protein OpmH) were kindly gifted by Dr. Ayush Kumar (University of Manitoba).
# (§2) The in vitro antibacterial activity of the compounds studied were assessed by broth microdilution susceptibility testing following CLSI guidelines. Bacterial cultures were grown overnight prior to the assay. The overnight grown cultures were diluted in saline to 0.5 McFarland turbidity, followed by 1:50 dilution in Mueller-Hinton broth (MHB) for inoculation to a final concentration of approximately 5×10^5 colony forming units/mL. Testing was performed on 96-well plates where the tested compounds were 2-fold serially diluted in MHB and incubated with equal volumes of bacterial inoculum at 37° C. for 18 h. […] Wells containing MHB with or without bacterial cells were used as positive or negative control, respectively.
# [2] = system: E. faecium ATCC 27270; type: cell-based
# From the text: as §1, §2
# [3] = system: S. pneumoniae ATCC 49619; type: cell-based
# From the text: as §1, §2
# [4] = system: S. aureus ATCC 29213; type: cell-based, Staphylococcus aureus
# From the text: as §1, §2
# [5] = system: MRSA ATCC 33592; type: cell-based, Staphylococcus aureus
# From the text: as §1, §2
# [6] = system: E. coli 94474; type: cell-based, Escherichia coli; conditions: 94474
# Experimental: (§3) We then addressed the possibility for the dilipid polymyxins to display enhanced antibacterial activity against colistin-resistant Gram-negative pathogens. […] The extended hydrophobic region of the dilipid polymyxin may provide additional hydrophobic interactions to the outer membrane of colistin-resistant organisms. Eight MDR colistin-resistant Gram-negative bacterial isolates were tested, including two E. coli isolates harboring the mcr-1 plasmid-encoded polymyxin resistance gene. We found no difference between the antibacterial activity of dilipid polymyxins and colistin against colistin-resistant Gram-negative bacteria (Table 3).
# as §1, §2
# [7] = system: E. coli 94393; type: cell-based, Escherichia coli; conditions: 94393
# Experimental: as §3, §1, §2
# [8] = system: A. baumannii 92247; type: cell-based, Acinetobacter baumannii; conditions: 92247
# Experimental: as §3, §1, §2
# [9] = system: P. aeruginosa PAO750; conditions: P. aeruginosa PAO750, efflux-deficient strain that lacks five pumps and OpmH
# From the text: (§4) To our curiosity, we explored whether efflux can affect the activity of polymyxins. It is widely accepted that polymyxins disrupt Gram-negative bacterial membranes that result to intracellular component leakage and bacterial cell death. However, for this to occur requires the agent to reach the periplasmic space to interact and disrupt the inner membrane. Active efflux may potentially expel polymyxins out of the periplasm, effectively reducing its periplasmic and intracellular concentrations. To study the effect of efflux on polymyxins in Gram-negative pathogens, we used P. aeruginosa as they inherently overexpress efflux systems such as MexAB-OprM, MexCD-OprJ and MexXY-OprM. Moreover, antibiotic substrates for these efflux systems are mostly characterized. We evaluated and compared the activity of the dilipid polymyxins, colistin and PMBN against wild-type PAO1 and two efflux-deficient P. aeruginosa isogenic mutants (Table 5). The strain PAO200 lacks the MexAB-OprM efflux system while strain PAO750 lacks five clinically-relevant pumps (MexAB-OprM, MexCD-OprJ, MexEF-OprN, MexJK and MexXY) and outer membrane protein OpmH.
# as §1, §2
# [10] = system: P. aeruginosa PAO200; conditions: for MIC: P. aeruginosa PAO200, efflux-deficient strain that lacks the MexAB-OprM pump
# From the text: as §4, §1, §2
# [11] = system: E. cloacae 117029; type: cell-based, Enterobacter cloacae; conditions: 117029
# From the text: as §1, §2
# [12] = system: E. coli CAN-ICU 63074; type: cell-based, Escherichia coli
# From the text: as §1, §2
# [13] = system: E. coli ATCC 25922; type: cell-based, Escherichia coli
# From the text: as §1, §2
# [14] = system: E. coli CAN-ICU 61714; type: cell-based, Escherichia coli
# From the text: as §1, §2
# [15] = system: E. coli 107115; type: cell-based, Escherichia coli; conditions: 107115
# From the text: as §1, §2
# [16] = MRSA ATCC 33592 (methicillin-resistant Staphylococcus aureus)
smiles,measurement,setting,value
"CCCC(=O)NCC[C@H](NC(=O)CCC)C(=O)N[C@H](C(=O)N[C@@H](CCN)C(=O)N[C@H]1CCNC(=O)[C@H]([C@@H](C)O)NC(=O)[C@H](CCN)NC(=O)[C@H](CCN)NC(=O)[C@H](CC(C)C)NC(=O)[C@@H](Cc2ccccc2)NC(=O)[C@H](CCN)NC1=O)[C@@H](C)O [Compound 1, Dibutyric Acid (Di-C4) Polymyxin] (Butyryl-[Dab](Butyryl)T[Dab][Dab][Dab][dF]L[Dab][Dab]T; lactam 4-C)",MIC,[1]; E. faecalis ATCC 29212,>128 µg/mL
same,MIC,[2]; E. faecium ATCC 27270,>128 µg/mL
same,MIC,[3]; S. pneumoniae ATCC 49619,>128 µg/mL
same,MIC,[4]; S. aureus ATCC 29213,>128 µg/mL
same,MIC,[5]; [16],>128 µg/mL
same,MIC,[6],>64 µg/mL
same,MIC,[7],>64 µg/mL
same,MIC,[8],>64 µg/mL
same,MIC,[9],8 µg/mL
same,MIC,[10],4 µg/mL
same,fold difference in MIC against wild-type PAO1 and efflux-deficient PAO200,[10]; PAO1 versus PAO200 (lacks MexAB-OprM),32 fold
same,MIC,[11],64 µg/mL
same,MIC,[12]; E. coli CAN-ICU 63074,>128 µg/mL
same,MIC,[13]; E. coli ATCC 25922,>128 µg/mL
same,MIC,[14]; E. coli CAN-ICU 61714,>128 µg/mL
same,MIC,[15],128 µg/mL
"CCCCCCCC(=O)NCC[C@H](NC(=O)CCCCCCC)C(=O)N[C@H](C(=O)N[C@@H](CCN)C(=O)N[C@H]1CCNC(=O)[C@H]([C@@H](C)O)NC(=O)[C@H](CCN)NC(=O)[C@H](CCN)NC(=O)[C@H](CC(C)C)NC(=O)[C@@H](Cc2ccccc2)NC(=O)[C@H](CCN)NC1=O)[C@@H](C)O [Compound 2, Dioctanoic Acid (Di-C8) Polymyxin] (Octanoyl-[Dab](Octanoyl)T[Dab][Dab][Dab][dF]L[Dab][Dab]T; lactam 4-C)",MIC,[1]; ATCC 29212,32 µg/mL
same,MIC,[2]; ATCC 27270,16 µg/mL
same,MIC,[3]; ATCC 49619,32 µg/mL
same,MIC,[4]; ATCC 29213,16 µg/mL
same,MIC,[5]; ATCC 33592,16 µg/mL
same,fold better MIC than colistin,[5]; methicillin-resistant Staphylococcus aureus,32 fold
same,MIC,[6],4 µg/mL
same,MIC,[7],4 µg/mL
same,MIC,[8],8 µg/mL
same,MIC,[9],2 µg/mL
same,MIC,[10],2 µg/mL
same,difference in MIC among the three P. aeruginosa strains tested,"[10]; PAO1, PAO200, PAO750",no difference
same,MIC,[11],2 µg/mL
same,MIC,[12]; CAN-ICU 63074,64 µg/mL
same,MIC,[13]; ATCC 25922,4 µg/mL
same,MIC,[14]; CAN-ICU 61714,32 µg/mL
same,MIC,[15],2 µg/mL
"CCCCCCCCCCCC(=O)NCC[C@H](NC(=O)CCCCCCCCCCC)C(=O)N[C@H](C(=O)N[C@@H](CCN)C(=O)N[C@H]1CCNC(=O)[C@H]([C@@H](C)O)NC(=O)[C@H](CCN)NC(=O)[C@H](CCN)NC(=O)[C@H](CC(C)C)NC(=O)[C@@H](Cc2ccccc2)NC(=O)[C@H](CCN)NC1=O)[C@@H](C)O [Compound 3, Didodecanoic Acid (Di-C12) Polymyxin] (Lauroyl-[Dab](Lauroyl)T[Dab][Dab][Dab][dF]L[Dab][Dab]T; lactam 4-C)",MIC,[1]; ATCC 29212,64 µg/mL
same,MIC,[2]; ATCC 27270,8 µg/mL
same,MIC,[3]; ATCC 49619,64 µg/mL
same,MIC,[4]; S. aureus ATCC 29213,>128 µg/mL
same,MIC,[5]; [16],>128 µg/mL
same,MIC,[6],>64 µg/mL
same,MIC,[7],32 µg/mL
same,MIC,[8],32 µg/mL
same,MIC,[9],32 µg/mL
same,MIC,[10],32 µg/mL
same,MIC,[11],16 µg/mL
same,MIC,[12]; CAN-ICU 63074,64 µg/mL
same,MIC,[13]; ATCC 25922,16 µg/mL
same,MIC,[14]; CAN-ICU 61714,128 µg/mL
same,MIC,[15],8 µg/mL
